Experimental data: patent US9975893B2, “Pyrazolo[3,4-c]pyridine derivatives” (CSPC ZHONGQI PHARMACEUTICAL TECHNOLOGY (SHIJIAZHUANG) CO., …, priority 2014, dated 2018)

Assays:
Factor Xa = biological target: T1, Factor Xa (Homo sapiens, UniProt P00742); test: Anti-Factor Xa activity assay (chromogenic substrate CS-11(22)); type: biochemical; conditions: ratio of compound IC50 to apixaban IC50; Factor Xa 0.1 U/ml, absorbance at 405 nm, 37° C.
T1 construct: purchased MERK
Experimental: I. Anti-Factor Xa Activity Assay
Substrate: CS-1122 (Hyphen)
Buffer: 50 mM TrisHCl, 150 mM NaCl, PH8.3
100 μL of buffer, 50 μL of different concentrations of compounds (diluted with buffer) and 50 μl of 0.1 U/ml Factor Xa enzyme (diluted with buffer) were added to a 96-well plate. After 15 min of exposure, 50 μL of chromogenic substrate 2.5 mg/ml CS-11 (22) was added. The substrate hydrolysis was monitored by measuring absorbance at 405 nm at 37° C. for up to 30 min (interval: 30 seconds) using a microplate spectrophotometer. IC50 was calculated by bliss.

Male SD rats [1] = test: Arteriovenous shunt model in rats; type: in vivo, rat; design: concentration or dose not given beside the values; conditions: rats given orally 2-4 hours before shunt opened; shunt 15 minutes; thrombus weight, treated vs. mean vehicle
From the text: III. Arteriovenous Shunt Model in Rats
Two 10 cm-long polyethylene tubings (1.50 and 2.88 mm of inner and outer diameter, respectively) linked to a central part (8 cm-long, 2.11 and 3.77 mm of inner and outer diameter, respectively) containing a 6 cm silk thread and filled with heparin (3.125 U/ml) were placed between the right carotid artery and the left jugular vein in rats.
Male SD rats were anesthetized by intraperitoneal injection of 10% chloral hydrate after oral dose, inverted fixation, then the right catotid artery and left vena jugularis externa were isolated, the proximal and distal sutures of catotid artery were tied. The syringe needle were cannulated into the catotid artery and fasted, the other of the tube was cannulated into the right vena jugularis externa. Rats were given orally 2-4 hours before the shunt was opened. Blood flowed from the right carotid artery into the polyethylene tubing and then return to left vena jugularis externa. The shunt was then disconnected 15 minutes later and the silk thread covered with thrombus was immediately withdrawn and weighed. The wet weight of the thrombus was determined. Then the silk thread was dried at 60° C. for 4 h to get the dry weight of the thrombus. The anti-thrombotic effects of these agents were expressed as percentage inhibition of thrombus formation based on the treated vs. the corresponding mean vehicle.

Male SD rats [2] = test: Rat tail bleeding model; type: in vivo; conditions: rat tail transected 0.5 to 4 hours after administration; prolongation = ratio of treated vs. mean vehicle value; relative to apixaban
Experimental: II Rat Tail Bleeding Model
Male SD rats were allocated randomly and administrated. After the administration, the rats were anesthetized by intraperitoneal injection of 10% chloral hydrate. At the time point of 0.5 to 4 hours (Tmax in PK) after the administration, the tails of anesthetized rats were transected 3 mm from the tip and vertically immersed in saline at 37° C. The time point when the continuous blood flow ceased for >30 s was measured. The prolongation of bleeding time was expressed as a ratio of treated vs. the mean vehicle value. Effects of compounds were determined as described below.

T1 sequence (P00742 235-488 limits assumed): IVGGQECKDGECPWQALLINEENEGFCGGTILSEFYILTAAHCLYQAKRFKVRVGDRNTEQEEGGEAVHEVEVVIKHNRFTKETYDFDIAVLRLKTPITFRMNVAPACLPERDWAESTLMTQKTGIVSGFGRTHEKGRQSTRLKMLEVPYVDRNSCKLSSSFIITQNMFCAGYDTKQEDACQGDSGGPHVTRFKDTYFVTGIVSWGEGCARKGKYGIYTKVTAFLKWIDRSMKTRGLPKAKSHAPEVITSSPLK
T1 sequence (P00742 41-179 partner limits assumed): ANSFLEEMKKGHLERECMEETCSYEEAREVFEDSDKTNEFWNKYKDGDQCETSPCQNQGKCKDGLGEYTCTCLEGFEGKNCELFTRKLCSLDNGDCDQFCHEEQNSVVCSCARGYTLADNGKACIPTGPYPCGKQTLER

SMILES	IC50(Compound)/IC50(apixaban) (Factor Xa)	Inhibition of thrombus formation (%) (Male SD rats [1])	The Prolongation of bleeding time (compound)/The Prolongation of bleeding time(apixaban) (Male SD rats [2])
COc1ccc(-n2nc(C(N)=O)c3c2C(=O)N(c2ccc(N4CCSCC4=O)cc2)CC3)cc1 [A 3, 1-(4-methoxyphenyl)-6-(4-(3-oxothiomorpholino)phenyl)-7-oxo-4,5,6,7-tetrahydro-1H-pyrazolo[3,4-c]pyridine-3-carboxamide]	<1		
COc1ccc(-n2nc(C(N)=O)c3c2C(=O)N(c2ccc(N4CCCCC4=O)c(C)c2)CC3)cc1 [A 16, 1-(4-methoxyphenyl)-6-(3-methyl-4-(2-oxopiperidin-1-yl)phenyl)-7-oxo-4,5,6,7-tetrahydro-1H-pyrazolo[3,4-c]pyridine-3-carboxamide]	<1		
COc1ccc(-n2nc(C(N)=O)c3c2C(=O)N(c2ccc(N4CCOCC4=O)c(C)c2)CC3)cc1 [A 17, 1-(4-methoxyphenyl)-6-(3-methyl-4-(3-oxomorpholino)phenyl)-7-oxo-4,5,6,7-tetrahydro-1H-pyrazolo[3,4-c]pyridine-3-carboxamide]	<1		
COc1ccc(-n2nc(C(N)=O)c3c2C(=O)N(c2ccc(-n4ccccc4=O)c(C)c2)CC3)cc1 [A 19, 1-(4-methoxyphenyl)-6-(3-methyl-4-(2-oxopyridin-1(2H)-yl)phenyl)-7-oxo-4,5,6,7-tetrahydro-1H-pyrazolo[3,4-c]pyridine-3-carboxamide]	<1		
CCOc1ccc(-n2nc(C(N)=O)c3c2C(=O)N(c2ccc(-n4cccc(C)c4=O)cc2)CC3)cc1F [A 27, 1-(3-fluoro-4-ethoxyphenyl)-6-(4-(3-methyl-2-oxopyridin-1(2H)-yl)phenyl)-7-oxo-4,5,6,7-tetrahydro-1H-pyrazolo[3,4-c]pyridine-3-carboxamide]	<2	68.7	<1
CCOc1ccc(-n2nc(C(N)=O)c3c2C(=O)N(c2ccc(-n4cccc(C)c4=O)cc2)CC3)cc1 [A 28, 1-(4-ethoxyphenyl)-6-(4-(3-methyl-2-oxopyridin-1(2H)-yl)phenyl)-7-oxo-4,5,6,7-tetrahydro-1H-pyrazolo[3,4-c]pyridine-3-carboxamide]	<1	73.1	<1
CCOc1ccc(-n2nc(C(N)=O)c3c2C(=O)N(c2ccc(N4CCCCC4=O)cc2)CC3)cc1Cl [A 29, 1-(3-chloro-4-ethoxyphenyl)-6-(4-(2-oxopiperidin-1-yl)phenyl)-7-oxo-4,5,6,7-tetrahydro-1H-pyrazolo[3,4-c]pyridine-3-carboxamide]	<2	67.4	<1
CCOc1ccc(-n2nc(C(N)=O)c3c2C(=O)N(c2ccc(-n4cccc(C)c4=O)cc2)CC3)cc1Cl [A 30, 1-(3-chloro-4-ethoxyphenyl)-6-(4-(3-methyl-2-oxopyridin-1(2H)-yl)phenyl)-7-oxo-4,5,6,7-tetrahydro-1H-pyrazolo[3,4-c]pyridine-3-carboxamide]	<2		<1
CCOc1ccc(-n2nc(C(N)=O)c3c2C(=O)N(c2ccc(N4CCCCC4=O)c(C)c2)CC3)cc1 [A 31, 1-(4-ethoxyphenyl)-6-(3-methyl-4-(2-oxopiperidin-1-yl)phenyl)-7-oxo-4,5,6,7-tetrahydro-1H-pyrazolo[3,4-c]pyridine-3-carboxamide]	<1	71.5	<1
CCOc1ccc(-n2nc(C(N)=O)c3c2C(=O)N(c2ccc(N4CCCCC4=O)c(C)c2)CC3)cc1F [A 32, 1-(3-fluoro-4-ethoxyphenyl)-6-(3-methyl-4-(2-oxopiperidin-1-yl)phenyl)-7-oxo-4,5,6,7-tetrahydro-1H-pyrazolo[3,4-c]pyridine-3-carboxamide]	<1	61.4	<1
CCOc1ccc(-n2nc(C(N)=O)c3c2C(=O)N(c2ccc(N4CCOCC4=O)c(C)c2)CC3)cc1 [A 33, 1-(4-ethoxyphenyl)-6-(3-methyl-4-(3-oxomorpholino)phenyl)-7-oxo-4,5,6,7-tetrahydro-1H-pyrazolo[3,4-c]pyridine-3-carboxamide]	<1	60.8	<1
CCOc1ccc(-n2nc(C(N)=O)c3c2C(=O)N(c2ccc(N4CCOCC4=O)c(C)c2)CC3)cc1F [A 34, 1-(3-fluoro-4-ethoxyphenyl)-6-(3-methyl-4-(3-oxomorpholino)phenyl)-7-oxo-4,5,6,7-tetrahydro-1H-pyrazolo[3,4-c]pyridine-3-carboxamide]	<1	62.5	<1
CCOc1ccc(-n2nc(C(N)=O)c3c2C(=O)N(c2ccc(N4CCCC4=O)c(C)c2)CC3)cc1 [A 35, 1-(4-ethoxyphenyl)-6-(3-methyl-4-(2-oxopyrrolidin-1-yl)phenyl)-7-oxo-4,5,6,7-tetrahydro-1H-pyrazolo[3,4-c]pyridine-3-carboxamide]	<2		<1
CCOc1ccc(-n2nc(C(N)=O)c3c2C(=O)N(c2ccc(N4CCCC4=O)c(C)c2)CC3)cc1F [A 36, 1-(3-fluoro-4-ethoxyphenyl)-6-(3-methyl-4-(2-oxopyrrolidin-1-yl)phenyl)-7-oxo-4,5,6,7-tetrahydro-1H-pyrazolo[3,4-c]pyridine-3-carboxamide]	<1	71.6	<1
CCOc1ccc(-n2nc(C(N)=O)c3c2C(=O)N(c2ccc(-n4ccccc4=O)c(C)c2)CC3)cc1 [A 37, 1-(4-ethoxyphenyl)-6-(3-methyl-4-(2-oxopyridin-1(2H)-yl)phenyl)-7-oxo-4,5,6,7-tetrahydro-1H-pyrazolo[3,4-c]pyridine-3-carboxamide]	<1	63.7	<1
COc1ccc(-n2nc(C(N)=O)c3c2C(=O)N(c2ccc(N4CCCCC4=O)c(C)c2)CC3)cc1F [A 47, 1-(3-fluoro-4-methoxyphenyl)-6-(3-methyl-4-(2-oxopiperidin-1-yl)phenyl)-7-oxo-4,5,6,7-tetrahydro-1H-pyrazolo[3,4-c]pyridine-3-carboxamide]	<1		
COc1ccc(-n2nc(C(N)=O)c3c2C(=O)N(c2ccc(N4CCOCC4=O)c(C)c2)CC3)cc1F [A 48, 1-(3-fluoro-4-methoxyphenyl)-6-(3-methyl-4-(3-oxomorpholino)phenyl)-7-oxo-4,5,6,7-tetrahydro-1H-pyrazolo[3,4-c]pyridine-3-carboxamide]	<1		
COc1ccc(-n2nc(C(N)=O)c3c2C(=O)N(c2ccc(-n4ccccc4=O)c(C)c2)CC3)cc1F [A 50, 1-(3-fluoro-4-methoxyphenyl)-6-(3-methyl-4-(2-oxopyridin-1(2H)-yl)phenyl)-7-oxo-4,5,6,7-tetrahydro-1H-pyrazolo[3,4-c]pyridine-3-carboxamide]	<1		
COc1ccc(-n2nc(C(N)=O)c3c2C(=O)N(c2ccc(-n4cccc(C)c4=O)c(C)c2)CC3)cc1F [A 51, 1-(3-fluoro-4-methoxyphenyl)-6-(3-methyl-4-(3-methyl-2-oxopyridin-1(2H)-yl)phenyl)-7-oxo-4,5,6,7-tetrahydro-1H-pyrazolo[3,4-c]pyridine-3-carboxamide]	<1		
